The results in this text go back to US20230012368A1 (Hoffmann-La Roche Inc., priority 2018, published 2023).

Where a name gives a salt, the structure may show the parent alone.

As a reminder, the IC90 is the point of the concentration-response curve where the effect stands at 90%.

One assay concerns Acinetobacter baumannii ATCC 17978. Briefly: Antimicrobial susceptibility testing: 90% growth inhibitory concentration (IC90) determination. It is filed as cell-based. Particulars: 90% growth inhibitory concentration; Acinetobacter baumannii ATCC17978; Iso-Sensitest broth, OD 600 nm over 16h; hydrochloride; read-out: ATCC17978 IC90. Put shortly:
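Compounds serially twofold diluted (e.g. 50 to 0.097 μM final) in Iso-Sensitest broth, inoculated at ~5×10^(5) CFU/ml, incubated at 35±2° C. OD600 read every 20 minutes over 16h. IC90 taken as concentration inhibiting 90% of growth during logarithmic phase.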
With `CCc1cc(Nc2nccn3c(-c4ccc(OC)c(F)c4F)cnc23)ccc1C(=O)NCC(O)CN` (stereo not drawn) [Example 147, N-(3-amino-2-hydroxy-propyl)-4-[[3-(2,3-difluoro-4-methoxy-phenyl)imidazo[1,2-a]pyrazin-8-yl]amino]-2-ethyl-benzamide;hydrochloride], the IC90 turned out to be 450 nM.

Staying with this assay, now noted: Acinetobacter baumannii, ATCC17978, 16 h, 90% growth inhibitory concentration; Acinetobacter baumannii ATCC17978; Iso-Sensitest broth, OD 600 nm over 16h; read-out: ATCC17978 IC90.
`COc1ccc(-c2cnc3c(Nc4ccc(C(=O)N(C)CCN5CCCCC5)c(Cl)c4)nccn23)cc1F` [Example 237, 2-chloro-4-[[3-(3-fluoro-4-methoxyphenyl)imidazo[1,2-a]pyrazin-8-yl]amino]-N-methyl-N-(2-piperidin-1-ylethyl)benzamide]: the IC90 stood at 1500 nM.
Same read-out and setting: the result for `CCc1cc(Nc2nccn3c(-c4ccc(OC(F)F)c(F)c4F)cnc23)ccc1C(=O)NCCCCCN` [Example 96, N-(5-aminopentyl)-4-((3-(4-(difluoromethoxy)-2,3-difluorophenyl)imidazo [1,2-a]pyrazin-8-yl)amino)-2-ethylbenzamide hydrochloride] reads 70 nM.
The same measure, in the same setting: the result for `COc1ccc(-c2cnc3c(Nc4ccc(C(=O)N(C)CC(=O)N5CCOCC5)c(C)c4)nccn23)cc1F` [Example 8, 4-[[3-(3-fluoro-4-methoxy-phenyl)imidazo[1,2-a]pyrazin-8-yl]amino]-N,2-dimethyl-N-(2-morpholino-2-oxo-ethyl)benzamide] reads 2000 nM; that for `Cc1cc(Nc2nccn3c(-c4ccc(OCC#N)c(F)c4F)cnc23)ccc1C(=O)NCCCNC(=O)[C@@H]1C[C@](C)(O)CN1` [Example 134, (2S,4S)-N-[3-[[4-[[3-[4-(cyanomethoxy)-2,3-difluoro-phenyl]imidazo[1,2-a]pyrazin-8-yl]amino]-2-methyl-benzoyl]amino]propyl]-4-hydroxy-4-methyl-pyrrolidine-2-carboxamide formate], 80 nM.
In the case of `COc1ccc(-c2cnc3c(Nc4ccc(C(=O)NCCCN)c(C)c4)nccn23)cc1` [Example 51, N-(3-aminopropyl)-4-((3-(4-methoxyphenyl)imidazo [1,2-a]pyrazin-8-yl)amino)-2-methylbenzamide hydrochloride], the IC90 was 960 nM.
Consider `CCc1cc(Nc2nccn3c(-c4ccc(Cl)c(F)c4F)cnc23)ccc1C(=O)NCCCN` [Example 229, N-(3-aminopropyl)-4-[[3-(4-chloro-2,3-difluorophenyl)imidazo[1,2-a]pyrazin-8-yl]amino]-2-ethylbenzamide;hydrochloride], for which the 90% effect concentration (IC90) is 1200 nM.
Regarding `CCc1cc(Nc2nccn3c(-c4ccc(OC)c(F)c4F)cnc23)ccc1C(=O)NCC1CCN(C(=O)C2CCNCC2)CC1` [Example 546, 4-((3-(2,3-difluoro-4-methoxyphenyl)imidazo[1,2-a]pyrazin-8-yl)amino)-2-ethyl-N-((1-(piperidine-4-carbonyl)piperidin-4-yl)methyl)benzamide 2,2,2-trifluoroacetate], the IC90 came out at 70 nM.
As to `CNC(=O)c1ccc(Nc2nccn3c(-c4ccc(OC(F)F)cc4)cnc23)cc1I` [Example 91, 4-((3-(4-(difluoromethoxy)phenyl)imidazo[1,2-a]pyrazin-8-yl)amino)-2-iodo-N-methylbenzamide], the IC90 turned out to be 260 nM.
The same measure, in the same setting: the result for `CCc1cc(Nc2nccn3c(-c4ccc(OC)c(F)c4F)cnc23)ccc1C(=O)NCCCNC(=O)C1CNC(=N)N1` (stereo not drawn) [Example 356, N-[3-[[4-[[3-(2,3-difluoro-4-methoxyphenyl)imidazo[1,2-a]pyrazin-8-yl]amino]-2-ethylbenzoyl]amino]propyl]-2-iminoimidazolidine-4-carboxamide] reads 50 nM.
`CCc1cc(Nc2nccn3c(-c4ccc(OC)c(F)c4F)cnc23)ccc1C(=O)NCCNC(=O)N1CCN[C@H](C(=O)O)C1` [Example 350, (2S)-4-[2-[[4-[[3-(2,3-difluoro-4-methoxyphenyl)imidazo[1,2-a]pyrazin-8-yl]amino]-2-ethylbenzoyl]amino]ethylcar-bamoyl]piperazine-2-carboxylic acid;formic acid]: the IC90 worked out at 1200 nM.
Take `N#CCOc1ccc(-c2cnc3c(Nc4ccc(C(=O)NCCc5ccncc5)c(Cl)c4)nccn23)c(F)c1F` [Example 75, 2-chloro-4-((3-(4-(cyanomethoxy)-2,3-difluorophenyl)imidazo [1,2-a]pyrazin-8-yl)amino)-N-(2-(pyridin-4-yl)ethyl)benzamide]: the IC90 was determined as 90 nM.
Consider `Cc1cc(Nc2nccn3c(-c4ccc(OC(F)F)cc4)cnc23)ccc1C(=O)N(C)CCC1CCN(CCC#N)CC1` [Example 309, N-[2-[1-(2-cyanoethyl)piperidin-4-yl]ethyl]-4-[[3-[4-(difluoromethoxy)phenyl]im-idazo[1,2-a]pyrazin-8-yl]amino]-N,2-dimethylbenzamide], for which the IC90 turned out to be 690 nM.
On the same count and under the same terms, the result for `CCc1cc(Nc2nccn3c(-c4ccc(OC)c(F)c4F)cnc23)ccc1C(=O)NCC1CCNCC1` [Example 543, 4-((3-(2,3-difluoro-4-methoxyphenyl)imidazo[1,2-a]pyrazin-8-yl)amino)-2-ethyl-N-(piperidin-4-ylmethyl)benzamide formate] reads 66 nM; that for `CCc1cc(Nc2nccn3c(-c4ccc(OC(F)F)c(F)c4F)cnc23)ccc1C(=O)NCC1(O)CNC1` [Example 307, 4-[[3-[4-(difluoromethoxy)-2,3-difluorophenyl]imidazo[1,2-a]pyrazin-8-yl]amino]-2-ethyl-N-[(3-hydroxyazetidin-3-yl)methyl]benzamide;hydro-chloride], 620 nM.
Turning to `COc1ccc(-c2cnc3c(Nc4ccc(C(=O)N(C)CC(=O)N5CCNC(=O)C5)c(C)c4)nccn23)cc1F` [Example 6], the IC90 is 640 nM.
On the same count and under the same terms, the result for `CC(=O)N1CCC(CCN(C)C(=O)c2ccc(Nc3nccn4c(-c5ccc(OC(F)F)cc5)cnc34)cc2C)CC1` [Example 204, N-[2-(1-acetylpiperidin-4-yl)ethyl]-4-[[3-[4-(difluoromethoxy)phenyl]im-idazo[1,2-a]pyrazin-8-yl]amino]-N,2-dimethylbenzamide] reads 530 nM.
On the same count and under the same terms, the result for `COc1ccc(-c2cnc3c(Nc4ccc(C(=O)NCCCCN5CCOCC5)c(C)c4)nccn23)cc1F` [Example 187, 4-[[3-(3-fluoro-4-methoxyphenyl)imidazo[1,2-a]pyrazin-8-yl]amino]-2-methyl-N-(4-morpholin-4-ylbutyl)benzamide] reads 270 nM; that for `CCc1cc(Nc2nccn3c(-c4ccc(OC)c(F)c4F)cnc23)ccc1C(=O)NCCCNC(=O)C(CNC(=N)N)NC(=O)[C@@H](N)CCC(=O)O` (mixture of isomers) [Example 155, (4S)-4-Amino-5-((1-((3-(4-((3-(2,3-difluoro-4-methoxyphenyl)imidazo[1,2-a]pyrazin-8-yl)amino)-2-ethylbenzamido)propyl)amino)-3-guanidino-1-oxopropan-2-yl)amino)-5-oxopentanoic acid trihydrochloride (Epimers 1:1)], 340 nM; that for `CCc1cc(Nc2nccn3c(-c4ccc(OC)c(F)c4F)cnc23)ccc1C(=O)NCC(O)CNC(=O)[C@@H](N)CCCCN` (mixture of isomers) [Example 412, rac-N-(3-((R)-2,6-diaminohexanamido)-2-hydroxypropyl)-4-((3-(2,3-difluoro-4-methoxyphenyl)imidazo[1,2-a]pyrazin-8-yl)amino)-2-ethylbenzamide dihydrochloride], 770 nM.
Turning to `COc1ccc(-c2cnc3c(Nc4ccc(C(=O)NCCN5CCNCC5)cc4)nccn23)cc1Cl` [Example 30, 4-((3-(3-chloro-4-methoxyphenyl)imidazo [1,2-a]pyrazin-8-yl)amino)-N-(2-(piperazin-1-yl)ethyl)benzamide hydrochloride], the IC90 turned out to be 3700 nM.
Still for that read-out and setting: the result for `COc1ccc(-c2cnc3c(Nc4ccc(C(=O)N(C)CC5CCNCC5)c(Cl)c4)nccn23)cc1F` [Example 205, 2-chloro-4-[[3-(3-fluoro-4-methoxyphenyl)imidazo[1,2-a]pyrazin-8-yl]amino]-N-methyl-N-(piperidin-4-ylmethyl)benzamide;hydrochlo-ride] reads 530 nM; that for `COc1ccc(-c2cnc3c(Nc4ccc(C(=O)N(C)CCN(C)C)cc4)nccn23)cc1Cl` [Example 28, 4-((3-(3-chloro-4-methoxyphenyl)imidazo [1,2-a]pyrazin-8-yl)amino)-N-(2-(dimethylamino)ethyl)-N-methylbenzamide], 3600 nM.
Turning to `CCc1cc(Nc2nccn3c(-c4ccc(OC)c(F)c4F)cnc23)ccc1C(=O)NC/C=C/CN` [Example 536, N-[(E)-4-aminobut-2-enyl]-4-[[3-(2,3-difluoro-4-methoxyphenyl)imidazo[1,2-a]pyrazin-8-yl]amino]-2-ethylbenzamide], the IC90 came out at 24 nM.
For the compound `COc1ccc(-c2cnc3c(Nc4ccc(C(=O)N(C)CCOn5nnc6cccnc65)c(C)c4)nccn23)cc1F` [Example 305, 4-[[3-(3-fluoro-4-methoxyphenyl)imidazo[1,2-a]pyrazin-8-yl]amino]-N,2-dimethyl-N-[2-(triazolo[4,5-b]pyridin-3-yloxy)ethyl]benzamide], the IC90 turned out to be 510 nM.
On the same count and under the same terms, the result for `CCN(CC)C(=O)c1ccc(Nc2nccn3c(-c4ccc(OC)c(Cl)c4)cnc23)cc1` [Example 215, 4-[[3-(3-chloro-4-methoxyphenyl)imidazo[1,2-a]pyrazin-8-yl]amino]-N,N-diethylbenzamide] reads 680 nM; that for `CCc1cc(Nc2nccn3c(-c4ccc(Oc5cc(OC)ncn5)c(F)c4F)cnc23)ccc1C(=O)N[C@@H](C)CN` [Example 463, (S)-N-(1-aminopropan-2-yl)-4-((3-(2,3-difluoro-4-((6-methoxypyrimidin-4-yl)oxy)phenyl)imidazo[1,2-a]pyrazin-8-yl)amino)-2-ethylbenzamide], 840 nM.
